Measurements reported in article doi:10.1101/2023.12.04.569845, “Identification of 4-(6-((2-methoxyphenyl)amino)pyrazin-2-yl)benzoic acids as CSNK2A inhibitors with antiviral activity and improved selectivity over PIM3” (bioRxiv, 2023).
Read-outs that look alike come from different tables or passages of the source.

Key:
Experiment in all cases: biochemical
Design in all cases: Thermal shift (DSF, SYPRO Orange) Tm shift of recombinant kinase domains at 10 uM compound
BRAF = BRAF (Homo sapiens, UniProt P15056)
BRAF, sequence (P15056 whole entry): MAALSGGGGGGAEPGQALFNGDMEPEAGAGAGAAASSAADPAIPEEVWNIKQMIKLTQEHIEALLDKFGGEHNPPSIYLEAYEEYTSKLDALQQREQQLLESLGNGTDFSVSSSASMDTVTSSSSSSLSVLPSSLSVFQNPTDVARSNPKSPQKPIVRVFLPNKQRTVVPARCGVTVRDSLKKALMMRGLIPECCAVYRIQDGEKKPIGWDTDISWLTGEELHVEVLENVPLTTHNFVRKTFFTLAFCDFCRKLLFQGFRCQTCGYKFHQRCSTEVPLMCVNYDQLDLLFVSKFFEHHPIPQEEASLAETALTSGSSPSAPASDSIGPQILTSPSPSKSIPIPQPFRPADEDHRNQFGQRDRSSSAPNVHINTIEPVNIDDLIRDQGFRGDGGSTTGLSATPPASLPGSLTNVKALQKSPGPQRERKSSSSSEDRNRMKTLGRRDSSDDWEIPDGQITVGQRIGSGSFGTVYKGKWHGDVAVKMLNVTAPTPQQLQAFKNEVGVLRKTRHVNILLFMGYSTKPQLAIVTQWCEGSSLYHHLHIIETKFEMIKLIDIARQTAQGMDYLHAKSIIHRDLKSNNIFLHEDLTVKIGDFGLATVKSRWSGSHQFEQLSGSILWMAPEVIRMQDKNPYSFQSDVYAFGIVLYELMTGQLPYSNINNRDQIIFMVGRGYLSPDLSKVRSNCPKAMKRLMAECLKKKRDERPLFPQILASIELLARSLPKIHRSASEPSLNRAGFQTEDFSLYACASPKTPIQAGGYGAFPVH

CASK = biological target: T1, CASK (Homo sapiens, UniProt O14936)
T1 sequence (O14936 1-926): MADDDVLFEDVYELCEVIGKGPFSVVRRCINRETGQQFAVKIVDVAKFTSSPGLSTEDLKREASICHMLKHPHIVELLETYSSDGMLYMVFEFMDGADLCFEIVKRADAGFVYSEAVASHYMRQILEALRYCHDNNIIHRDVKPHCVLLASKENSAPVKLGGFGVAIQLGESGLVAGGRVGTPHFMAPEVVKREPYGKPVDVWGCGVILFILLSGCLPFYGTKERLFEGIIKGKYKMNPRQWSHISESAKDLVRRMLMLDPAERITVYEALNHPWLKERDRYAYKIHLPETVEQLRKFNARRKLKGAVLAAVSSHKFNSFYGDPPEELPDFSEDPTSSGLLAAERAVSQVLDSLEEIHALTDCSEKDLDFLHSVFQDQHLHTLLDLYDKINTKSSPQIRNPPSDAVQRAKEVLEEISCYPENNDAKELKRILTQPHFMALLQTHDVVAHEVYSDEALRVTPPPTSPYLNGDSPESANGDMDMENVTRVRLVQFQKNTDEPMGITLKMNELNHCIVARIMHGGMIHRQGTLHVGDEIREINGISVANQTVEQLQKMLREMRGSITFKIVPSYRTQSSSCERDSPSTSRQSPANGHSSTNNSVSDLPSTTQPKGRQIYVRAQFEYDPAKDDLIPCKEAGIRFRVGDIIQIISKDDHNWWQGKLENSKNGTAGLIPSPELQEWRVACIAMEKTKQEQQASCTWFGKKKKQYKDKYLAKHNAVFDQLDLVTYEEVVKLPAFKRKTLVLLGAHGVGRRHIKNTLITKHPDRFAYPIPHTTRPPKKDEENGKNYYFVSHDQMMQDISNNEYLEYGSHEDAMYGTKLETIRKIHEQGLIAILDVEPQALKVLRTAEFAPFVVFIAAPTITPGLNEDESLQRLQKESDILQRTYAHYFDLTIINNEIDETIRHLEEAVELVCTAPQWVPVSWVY

MST1 = biological target: T2, MST1 (Homo sapiens, UniProt Q13043)
T2 construct: gene STK4
T2 sequence (Q13043 1-487): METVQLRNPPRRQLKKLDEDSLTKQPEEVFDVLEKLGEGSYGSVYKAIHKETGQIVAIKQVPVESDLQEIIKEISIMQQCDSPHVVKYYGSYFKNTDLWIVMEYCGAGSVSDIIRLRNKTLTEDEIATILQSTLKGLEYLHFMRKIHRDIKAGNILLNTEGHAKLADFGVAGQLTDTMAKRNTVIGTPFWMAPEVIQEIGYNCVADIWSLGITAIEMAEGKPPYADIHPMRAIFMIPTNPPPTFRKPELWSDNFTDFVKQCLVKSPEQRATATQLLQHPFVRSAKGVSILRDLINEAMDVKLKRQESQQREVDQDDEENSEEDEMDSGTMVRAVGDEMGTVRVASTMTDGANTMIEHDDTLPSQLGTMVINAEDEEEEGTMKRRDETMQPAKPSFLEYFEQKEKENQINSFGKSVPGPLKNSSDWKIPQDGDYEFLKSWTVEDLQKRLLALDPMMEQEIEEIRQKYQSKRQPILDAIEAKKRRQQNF

PCTAIRE1 = biological target: T3, PCTAIRE1 (Homo sapiens, UniProt Q00536)
T3 construct: gene CDK16
T3 sequence (Q00536 whole entry): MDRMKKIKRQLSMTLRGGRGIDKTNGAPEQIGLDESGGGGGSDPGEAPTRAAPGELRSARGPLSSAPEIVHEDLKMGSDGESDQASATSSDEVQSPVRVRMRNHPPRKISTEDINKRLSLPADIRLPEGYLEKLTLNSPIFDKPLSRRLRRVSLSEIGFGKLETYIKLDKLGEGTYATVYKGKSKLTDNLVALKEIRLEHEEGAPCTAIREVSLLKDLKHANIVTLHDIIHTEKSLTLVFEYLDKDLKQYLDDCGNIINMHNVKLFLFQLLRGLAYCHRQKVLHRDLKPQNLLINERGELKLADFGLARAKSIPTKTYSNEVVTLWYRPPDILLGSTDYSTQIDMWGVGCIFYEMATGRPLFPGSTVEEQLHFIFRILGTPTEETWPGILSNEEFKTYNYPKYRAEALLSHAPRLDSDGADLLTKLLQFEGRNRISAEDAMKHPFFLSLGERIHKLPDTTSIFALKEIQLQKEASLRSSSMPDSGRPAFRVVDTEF

EPHA5 = EPHA5 (Homo sapiens, UniProt P54756)
EPHA5, sequence (P54756 whole entry): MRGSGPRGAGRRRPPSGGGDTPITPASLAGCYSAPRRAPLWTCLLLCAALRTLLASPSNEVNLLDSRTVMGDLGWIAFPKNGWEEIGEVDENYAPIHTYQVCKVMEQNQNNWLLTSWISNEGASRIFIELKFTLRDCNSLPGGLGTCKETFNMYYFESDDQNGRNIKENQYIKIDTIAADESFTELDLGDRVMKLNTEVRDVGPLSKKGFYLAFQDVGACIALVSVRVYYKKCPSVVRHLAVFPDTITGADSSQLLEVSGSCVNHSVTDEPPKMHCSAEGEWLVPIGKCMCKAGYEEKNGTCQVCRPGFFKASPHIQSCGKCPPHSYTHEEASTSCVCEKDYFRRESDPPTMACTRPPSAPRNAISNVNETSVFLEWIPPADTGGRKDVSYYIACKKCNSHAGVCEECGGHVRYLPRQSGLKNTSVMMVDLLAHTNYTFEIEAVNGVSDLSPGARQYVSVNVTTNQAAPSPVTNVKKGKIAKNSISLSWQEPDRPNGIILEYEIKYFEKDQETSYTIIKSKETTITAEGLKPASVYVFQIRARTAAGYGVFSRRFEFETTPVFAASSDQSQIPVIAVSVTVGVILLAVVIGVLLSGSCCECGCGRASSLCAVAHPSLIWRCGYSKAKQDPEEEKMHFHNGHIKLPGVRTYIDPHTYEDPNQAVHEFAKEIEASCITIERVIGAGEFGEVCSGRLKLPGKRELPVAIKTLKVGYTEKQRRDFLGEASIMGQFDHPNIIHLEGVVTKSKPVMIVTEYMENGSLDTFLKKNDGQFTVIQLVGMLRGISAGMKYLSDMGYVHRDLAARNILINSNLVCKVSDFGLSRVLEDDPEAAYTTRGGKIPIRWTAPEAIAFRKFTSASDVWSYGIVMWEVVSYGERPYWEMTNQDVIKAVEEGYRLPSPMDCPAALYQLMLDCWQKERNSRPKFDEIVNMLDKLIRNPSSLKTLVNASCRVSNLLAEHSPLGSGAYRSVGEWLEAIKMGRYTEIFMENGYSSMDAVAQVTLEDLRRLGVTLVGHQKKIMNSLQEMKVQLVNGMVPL

AURKB = AURKB (Homo sapiens, UniProt Q96GD4)
AURKB, sequence (Q96GD4 whole entry): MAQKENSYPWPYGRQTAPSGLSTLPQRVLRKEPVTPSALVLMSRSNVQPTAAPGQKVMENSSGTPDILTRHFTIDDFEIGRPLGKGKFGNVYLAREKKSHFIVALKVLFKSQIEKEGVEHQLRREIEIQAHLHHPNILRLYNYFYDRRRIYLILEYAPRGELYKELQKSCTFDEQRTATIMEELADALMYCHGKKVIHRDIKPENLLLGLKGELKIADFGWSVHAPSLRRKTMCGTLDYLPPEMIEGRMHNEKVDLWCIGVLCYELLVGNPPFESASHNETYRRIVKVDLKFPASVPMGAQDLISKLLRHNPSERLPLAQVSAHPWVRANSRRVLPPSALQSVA

SRPK1 = SRPK1 (Homo sapiens, UniProt Q96SB4)
SRPK1, sequence (Q96SB4 whole entry): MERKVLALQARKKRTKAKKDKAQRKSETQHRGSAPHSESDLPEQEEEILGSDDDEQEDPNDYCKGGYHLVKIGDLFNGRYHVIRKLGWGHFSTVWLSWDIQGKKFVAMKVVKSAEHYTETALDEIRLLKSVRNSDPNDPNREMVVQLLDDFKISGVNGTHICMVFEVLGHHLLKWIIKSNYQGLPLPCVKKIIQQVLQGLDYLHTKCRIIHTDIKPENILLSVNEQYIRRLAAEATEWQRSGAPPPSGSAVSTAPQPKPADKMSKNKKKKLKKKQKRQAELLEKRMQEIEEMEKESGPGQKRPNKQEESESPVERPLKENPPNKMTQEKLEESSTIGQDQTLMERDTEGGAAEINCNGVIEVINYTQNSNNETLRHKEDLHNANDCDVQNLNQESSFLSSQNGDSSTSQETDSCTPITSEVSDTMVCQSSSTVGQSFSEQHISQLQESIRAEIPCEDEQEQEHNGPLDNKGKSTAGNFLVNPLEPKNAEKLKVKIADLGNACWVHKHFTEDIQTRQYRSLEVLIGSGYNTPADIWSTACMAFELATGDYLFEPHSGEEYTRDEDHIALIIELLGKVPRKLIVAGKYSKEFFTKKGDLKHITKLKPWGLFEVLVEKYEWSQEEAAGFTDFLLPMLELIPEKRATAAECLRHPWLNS

FECH = biological target: T4, FECH (Homo sapiens, UniProt P22830)
T4 sequence (P22830 1-423): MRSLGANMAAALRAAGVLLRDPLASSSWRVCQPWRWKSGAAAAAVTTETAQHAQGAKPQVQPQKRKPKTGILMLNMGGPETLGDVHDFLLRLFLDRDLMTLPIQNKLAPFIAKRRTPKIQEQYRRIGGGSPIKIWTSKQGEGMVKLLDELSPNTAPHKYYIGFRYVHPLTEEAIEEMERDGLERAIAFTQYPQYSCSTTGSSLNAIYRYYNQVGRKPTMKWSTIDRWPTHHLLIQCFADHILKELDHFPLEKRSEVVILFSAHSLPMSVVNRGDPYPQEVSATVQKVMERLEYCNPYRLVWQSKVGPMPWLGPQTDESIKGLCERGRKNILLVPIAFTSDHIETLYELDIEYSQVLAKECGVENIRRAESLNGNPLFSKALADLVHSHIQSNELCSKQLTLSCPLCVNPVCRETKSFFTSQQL

EPHA7 = EPHA7 (Homo sapiens, UniProt Q15375)
EPHA7, sequence (Q15375 whole entry): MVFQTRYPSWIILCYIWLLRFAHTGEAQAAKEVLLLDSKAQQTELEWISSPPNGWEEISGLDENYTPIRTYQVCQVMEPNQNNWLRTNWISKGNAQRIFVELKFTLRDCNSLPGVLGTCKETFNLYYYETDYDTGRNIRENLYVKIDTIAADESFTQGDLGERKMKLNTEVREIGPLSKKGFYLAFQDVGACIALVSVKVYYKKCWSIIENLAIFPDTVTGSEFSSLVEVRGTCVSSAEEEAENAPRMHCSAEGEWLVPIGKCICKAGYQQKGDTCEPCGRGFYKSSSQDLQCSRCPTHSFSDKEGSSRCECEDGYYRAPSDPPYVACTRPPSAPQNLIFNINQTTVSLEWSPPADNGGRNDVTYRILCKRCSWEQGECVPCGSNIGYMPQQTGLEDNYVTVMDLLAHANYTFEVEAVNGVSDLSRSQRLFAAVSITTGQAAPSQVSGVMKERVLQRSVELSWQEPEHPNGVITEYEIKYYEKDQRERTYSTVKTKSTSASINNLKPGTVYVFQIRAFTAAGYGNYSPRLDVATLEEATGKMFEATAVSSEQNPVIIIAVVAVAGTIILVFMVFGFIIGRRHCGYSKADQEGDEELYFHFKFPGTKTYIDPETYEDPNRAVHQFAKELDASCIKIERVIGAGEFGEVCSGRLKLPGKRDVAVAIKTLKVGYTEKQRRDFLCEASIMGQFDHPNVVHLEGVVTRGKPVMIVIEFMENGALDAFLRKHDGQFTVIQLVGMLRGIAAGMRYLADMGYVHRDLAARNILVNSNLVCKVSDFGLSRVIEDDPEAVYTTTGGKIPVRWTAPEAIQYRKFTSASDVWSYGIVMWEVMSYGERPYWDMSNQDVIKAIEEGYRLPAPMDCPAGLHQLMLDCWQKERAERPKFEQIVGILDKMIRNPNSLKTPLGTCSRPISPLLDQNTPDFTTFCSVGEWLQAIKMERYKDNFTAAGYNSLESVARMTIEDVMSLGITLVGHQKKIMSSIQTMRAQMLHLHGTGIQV

MST3 = biological target: T5, MST3 (Homo sapiens, UniProt Q9Y6E0)
T5 construct: gene STK24
T5 sequence (Q9Y6E0 whole entry): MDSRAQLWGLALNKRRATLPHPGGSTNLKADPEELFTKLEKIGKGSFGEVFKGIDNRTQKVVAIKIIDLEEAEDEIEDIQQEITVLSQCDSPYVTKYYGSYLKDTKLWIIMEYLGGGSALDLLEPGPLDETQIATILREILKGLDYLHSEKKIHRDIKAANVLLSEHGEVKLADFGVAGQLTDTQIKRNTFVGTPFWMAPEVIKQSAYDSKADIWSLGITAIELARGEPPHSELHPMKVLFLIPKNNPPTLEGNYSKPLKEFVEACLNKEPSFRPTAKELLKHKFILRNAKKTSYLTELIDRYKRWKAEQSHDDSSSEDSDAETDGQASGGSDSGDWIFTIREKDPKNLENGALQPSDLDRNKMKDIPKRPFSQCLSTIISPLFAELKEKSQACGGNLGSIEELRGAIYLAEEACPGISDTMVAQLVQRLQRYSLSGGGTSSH

CC(C)Nc1ccc2cnn(-c3cncc(-c4ccc(C(=O)O)cc4)n3)c2c1 [compound 2, 2]
ΔTm at 10 µM (BRAF; read-out: 2): 6 °C
ΔTm at 10 µM (CASK; read-out: 2): 0 °C
ΔTm at 10 µM (MST1; read-out: 2): 3 °C
ΔTm at 10 µM (PCTAIRE1; read-out: 2): 2 °C
ΔTm at 10 µM (EPHA5; read-out: 2): 2 °C
ΔTm at 10 µM (AURKB; read-out: 2): 4 °C
ΔTm at 10 µM (SRPK1; read-out: 2): 6 °C
ΔTm at 10 µM (FECH; read-out: 2): 0 °C
ΔTm at 10 µM (EPHA7; read-out: 2): 2 °C
ΔTm at 10 µM (MST3; read-out: 2): 1 °C

COc1ccc(OC(C)C)cc1Nc1cncc(-c2ccc(C(=O)O)cc2)n1 [7c]
ΔTm at 10 µM (BRAF; read-out: 7c): 7 °C
ΔTm at 10 µM (CASK; read-out: 7c): 0 °C
ΔTm at 10 µM (MST1; read-out: 7c): 1 °C
ΔTm at 10 µM (PCTAIRE1; read-out: 7c): 2 °C
ΔTm at 10 µM (EPHA5; read-out: 7c): 1 °C
ΔTm at 10 µM (AURKB; read-out: 7c): 2 °C
ΔTm at 10 µM (SRPK1; read-out: 7c): 3 °C
ΔTm at 10 µM (FECH; read-out: 7c): 0 °C
ΔTm at 10 µM (EPHA7; read-out: 7c): 0 °C
ΔTm at 10 µM (MST3; read-out: 7c): -3 °C

CC(C)Oc1ccc2ccn(-c3cncc(-c4ccc(C(=O)O)cc4)n3)c2c1 [6c]
ΔTm at 10 µM (BRAF; read-out: 6c): 8 °C
ΔTm at 10 µM (CASK; read-out: 6c): 1 °C
ΔTm at 10 µM (MST1; read-out: 6c): 1 °C
ΔTm at 10 µM (PCTAIRE1; read-out: 6c): 5 °C
ΔTm at 10 µM (EPHA5; read-out: 6c): 2 °C
ΔTm at 10 µM (AURKB; read-out: 6c): 4 °C
ΔTm at 10 µM (SRPK1; read-out: 6c): 6 °C
ΔTm at 10 µM (FECH; read-out: 6c): -3 °C
ΔTm at 10 µM (EPHA7; read-out: 6c): 1 °C
ΔTm at 10 µM (MST3; read-out: 6c): -3 °C
